Type in all cases: in vivo
The subject of one assay is KP4 MTAP null xenografts. As to the kind of experiment: Efficacy study of KP-4 human pancreatic cancer xenograft model in NOD SCID mice. The conditions noted are these: for Tumor volume (mm^3) Final (mean): Mean ± SD. On the procedure:
Efficacy Study of KP-4 Human Pancreatic Cancer Xenograft Model in NOD SCID Mice
The KP-4 tumor cell line was maintained in vitro as monolayer culture in RPMI 1640 medium supplemented with 10% fetal bovine serum at 37° C. in an atmosphere of […] in air. The tumor cells were routinely subculture weekly by trypsin-EDTA treatment, not to exceed 4-5 passages. The cells growing in an exponential growth phase was harvested and counted for tumor inoculation.
Each mouse was inoculated subcutaneously on the central right flank with KP-4 tumor cells (1×10^7) in 0.1 mL of RPMI-1640 without serum for the tumor development. The treatment started when the mean tumor size reached approximately 100 mm^3. Mice were assigned to groups such that the mean tumor volume is the same for each treatment group and time point.
For routine monitoring, all study animals were monitored for not only tumor growth but also behavior such as mobility, food, and water consumption (by cage side checking only), body weight (BW), eye/hair matting and any other abnormal effect. Any mortality and/or abnormal clinical signs were recorded.
Body weights of all animals were measured twice a week throughout the study. Body weight change, expressed in %, will be calculated using the following formula: BW change (%)=(BWDay x/BWDay 0)×100, where BWDay x is BW on a given day, and BWDay 0 is BW on Day 0 (initiation of treatment).
The measurement of tumor size were conducted twice a week with a caliper and the tumor volume (mm^3) was estimated using the formula: TV=a×b^2/2, where a and b are long and short diameters of a tumor, respectively. The TVs were used for calculation of the tumor growth inhibition (TGI, an indicator of antitumor effectiveness) value using the formula: TGI (%)=[1−(Tn−T0)/(Cn−C0)]×100%, only over the dosing period (dosing days 0 to days n). Where: Tn—is the avg tumor volume at the respective day “n” after dosing throughout treatment period; T0—is the avg tumor volume in the treatment group at day 0 before treatment (immediately before); Cn—avg tumor volume in the control group at the respective day “n” after dosing throughout treatment period; and C0—average tumor volume in the control group at day 0 before treatment (immediately before). The experiment was terminated when the mean tumor volume exceeded 2000 mm^3 or severe body weight loss.
The statistical software GraphPad Prism (version number: 8) was used to analyze the difference in tumor volume between the treatment group and the solvent control group. Two-way ANOVA and Bonferroni multiple tests were used to compare whether there was a significant difference in tumor volume between the vehicle control group and each treatment group during the administration period.
Mean tumor volume at dosing start was approximately 102 mm^3, with ten mice randomized to each treatment group. In the KP4 MTAP null tumor model, mice were dosed orally, once per day (QD) with Vehicle, once per day (QD) with Compound 1 at 1, 3 mg/kg, once per day (QD) with AG270 at 100 mg/kg, mice were intravenous, per week with Docetaxel at 2.5 mg/kg, or Compound 1 combined with Docetaxel at each dose level.

The test system of assay [1] is HCC15 MTAP null xenografts. As to the kind of experiment: Efficacy study of HCC15 human lung cancer xenograft model in NOD SCID mice. The conditions noted are these: for Tumor volume (mm^3) Final (mean): Mean ± SD. On the procedure: Efficacy Study of HCC15 Human Lung Cancer Xenograft Model in NOD SCID Mice Methods:
The HCC15 cells were maintained in vitro as a monolayer culture in 90% 1640+10% FBS, 100U/ml penicillin and 100 μg/ml streptomycin at 37° C. in an atmosphere of 5% CO2 in air. The tumor cells were routinely subcultured at a ratio of 1:2 to 1:3 every 3-4 days. Alternatively, Cultures were maintained by addition or replacement of fresh medium. Started cultures at 5×10^5 cells/mL and maintained between 0.5×10^5 and 2×10^6 cells/ml.
NOD SCID mice, female, 6-8 weeks, weighing approximately 20-22 g.
Each mouse were inoculated subcutaneously at the right flank with HCC15 cells in a 0.2 mL mixture of 1640 for tumor development (5×10^6 cells/mouse). Dosing was started when the average tumor size reaches approximately 100-200 mm^3 for the tumor efficacy study with tool and med chem molecules to look for efficacy vs vehicle tumor growth.
Mean tumor volume at dosing start was approximately 133.09 mm^3, with ten mice randomized to each treatment group. In the HCC15 MTAP null tumor model, mice were dosed orally, once per day (QD) with Vehicle, once per day (QD) with Compound 1 at 3 mg/kg, once per day (QD) with AG270 at 100 mg/kg, mice were intravenous, per week with Docetaxel at 2.5 mg/kg, or Compound 1 combined with Docetaxel at each dose level.
A general note: Xenograft models place foreign cells or tissue in a host animal.

The subject of assay [2] is NCI-H838 MTAP null xenografts. As to the kind of experiment: Efficacy study of NCI-H838 human lung cancer xenograft model in NOD SCID mice. The conditions noted are these: MRTX1719 50 mg/kg QD. From the text:
Efficacy Study of NCI-H838 Human Lung Cancer Xenograft Model in NOD SCID Mice Methods:
The NCI-H838 cancer cells were maintained in vitro with RPMI-1640 medium supplemented with 10% fetal bovine serum at 37TC in an atmosphere of 5% CO2 in the air. The cells in exponential growth phase were harvested and quantitated by cell counter before tumor inoculation.
NOD SCID mice, female, 6-8 weeks, weighing approximately 20-22 g, All the mice were purchased from Shanghai Lingchang Bio-Tech Co., Ltd.
Each mouse was inoculated subcutaneously at the right flank with NCI-H838 cells in a 0.1 mL of PBS mixed with Matrigel (1:1) for tumor development (5×10^6 cells/mouse). Dosing was started when the average tumor size reached approximately ~150 mm^3 for the tumor efficacy study with tool and med chem molecules to look for efficacy vs vehicle tumor growth.
Mean tumor volume at dosing start was approximately 146.51 mm^3, with six mice randomized to each treatment group. In the NCI-H838 MTAP null tumor model, mice were dosed orally, once per day (QD) with vehicle, once per day (QD) with Compound 1 at 3, 10 mg/kg, mice were intravenous, once per day (QD) with PRMT5 inhibitor MRTX1719 at 50 mg/kg, or Compound 1 combined with MRTX1719 at each dose level.

Setting [3] is: Docetaxel 2.5 mg/kg intravenous per week.

`CC(=O)O[C@@]12CO[C@@H]1C[C@H](O)[C@@]1(C)C(=O)[C@H](O)C3=C(C)[C@@H](OC(=O)[C@H](O)[C@@H](NC(=O)OC(C)(C)C)c4ccccc4)C[C@@](O)([C@@H](OC(=O)c4ccccc4)[C@H]21)C3(C)C` [Docetaxel, docetaxel, reference compound]: the “TGI (%)” value was found to be 51.6% in the assay on KP4 MTAP null xenografts (setting [3]) and 58.5% in assay [1] (setting [3]). Besides, the results for the “Tumor volume (mm^3) Final (mean)” value (in the assay with KP4 MTAP null xenografts (setting [3]); in assay [1] (setting [3])) were 1,159 ± 129 mm^3 and 515 ± 36 mm^3, respectively.

As for `Cn1ncc(-c2ccc3c(=O)[nH]nc(CN)c3c2)c1-c1c(F)c(Cl)cc(OC2CC2)c1C#N` [MRTX1719, reference compound], in assay [2], the “TGI (%)” value was determined as 81.5%. Moreover, the “Tumor volume (mm^3) Final (mean)” value in assay [2] (Mean ± SD) was found to be 501 ± 69 mm^3.

For the compound AG270 [reference compound], the “TGI (%)” value in the assay on KP4 MTAP null xenografts (AG270 100 mg/kg orally QD) was 55.7%; in assay [1] (AG270 100 mg/kg orally QD, 100 mg/kg), 55.3%. Further, the figures for the “Tumor volume (mm^3) Final (mean)” value (in the assay on KP4 MTAP null xenografts (AG270 100 mg/kg orally QD); in assay [1] (AG270 100 mg/kg orally QD)) were 1,070 ± 132 mm^3 and 544 ± 30 mm^3, respectively.
